{"source": "patent US10183914B2", "about": "(BAYER CROPSCIENCE AKTIENGESELLSCHAFT, priority 2014, dated 2019)", "key": {"Stellaria media": {"system": "Stellaria media", "test": "Pre-emergence herbicidal effect", "type": "in vivo", "details": "3 weeks", "source_text": "(§1) Seeds of monocotyledonous and dicotyledonous weed plants and crop plants are laid out in wood-fiber pots in sandy loam and covered with soil. The compounds of the invention, formulated in the form of wettable powders (WP) or as emulsion concentrates (EC), are then applied to the surface of the covering soil as aqueous suspension or emulsion at a water application rate equating to 600 to 800 L/ha with addition of 0.2% wetting agent.\n(§2) After the treatment, the pots are placed in a greenhouse and kept under good growth conditions for the trial plants. The damage to the trial plants is scored visually after a trial duration of 3 weeks by comparison with untreated controls (herbicidal activity in percent (%): 100% efficacy=the plants have died, 0% efficacy=like control plants)."}, "Polygonum convolvulus": {"system": "Polygonum convolvulus", "test": "Pre-emergence herbicidal effect", "type": "in vivo", "details": "1280 g/ha, 3 weeks", "source_text": "as §1, §2"}, "Viola tricolor": {"system": "Viola tricolor", "test": "Pre-emergence herbicidal effect", "type": "in vivo", "details": "3 weeks", "source_text": "as §1, §2"}, "Amaranthus retroflexus": {"system": "Amaranthus retroflexus", "test": "Pre-emergence herbicidal effect", "type": "in vivo", "details": "3 weeks", "source_text": "as §1, §2"}, "Veronica persica": {"system": "Veronica persica", "test": "Pre-emergence herbicidal effect", "type": "in vivo", "details": "3 weeks", "source_text": "as §1, §2"}, "Matricaria inodora": {"system": "Matricaria inodora", "test": "Pre-emergence herbicidal effect", "type": "in vivo", "details": "3 weeks", "source_text": "as §1, §2"}, "Zea mays": {"system": "Zea mays", "test": "Pre-emergence herbicidal effect and crop plant compatibility", "type": "in vivo", "details": "3 weeks", "source_text": "as §1, §2"}, "[1]": {"system": "Triticum aestivum (spring)", "test": "Pre-emergence herbicidal effect and crop plant compatibility", "type": "in vivo", "details": "320 g/ha, 3 weeks", "source_text": "as §1, §2"}, "[2]": {"test": "logp (HCOOH), physicochemical characterization"}}}
{"smiles": "CC(=O)c1cnc(NC2c3ccccc3CCC2C)nc1", "note": "(racemic) [1.20]", "values": [{"measurement": "STEME herbicidal activity in percent", "setting": "Stellaria media; 320 g/ha", "value": 100, "unit": "%"}, {"measurement": "STEME herbicidal activity in percent", "setting": "Stellaria media; 1280 g/ha", "value": 100, "unit": "%"}, {"measurement": "POLCO herbicidal activity in percent", "setting": "Polygonum convolvulus", "value": 100, "unit": "%"}, {"measurement": "VIOTR herbicidal activity in percent", "setting": "Viola tricolor; 320 g/ha", "value": 90, "unit": "%"}, {"measurement": "VIOTR herbicidal activity in percent", "setting": "Viola tricolor; 1280 g/ha", "value": 100, "unit": "%"}, {"measurement": "AMARE herbicidal activity in percent", "setting": "Amaranthus retroflexus; 320 g/ha", "value": 90, "unit": "%"}, {"measurement": "AMARE herbicidal activity in percent", "setting": "Amaranthus retroflexus; 1280 g/ha", "value": 100, "unit": "%"}, {"measurement": "VERPE herbicidal activity in percent", "setting": "Veronica persica; 320 g/ha", "value": 100, "unit": "%"}, {"measurement": "VERPE herbicidal activity in percent", "setting": "Veronica persica; 1280 g/ha", "value": 100, "unit": "%"}, {"measurement": "MATIN herbicidal activity in percent", "setting": "Matricaria inodora; 320 g/ha", "value": 90, "unit": "%"}, {"measurement": "MATIN herbicidal activity in percent", "setting": "Matricaria inodora; 1280 g/ha", "value": 100, "unit": "%"}, {"measurement": "ZEAMX herbicidal activity in percent", "setting": "Zea mays; 320 g/ha", "value": 0, "unit": "%"}, {"measurement": "ZEAMX herbicidal activity in percent", "setting": "Zea mays; 1280 g/ha", "value": 0, "unit": "%"}, {"measurement": "TRZAS herbicidal activity in percent", "setting": "[1]", "value": 20, "unit": "%"}, {"measurement": "logp (HCOOH)", "setting": "[2]", "value": "oily; logp (HCOOH): 2.93; 1H-NMR (CDCl3, 400 MHZ, δ in ppm): 1.05 (d, 3H, CH3);"}]}
{"smiles": "CC1CCC(Nc2ncc3c(n2)CCCC3=O)c2ccccc21", "note": "(racemic) [2.111]", "values": [{"measurement": "logp (HCOOH)", "setting": "[2]", "value": "oily; logp (HCOOH): 3.37; 1H-NMR (CDCl3, 400 MHZ, δ in ppm): 1.35 (d, 3H, 3H"}]}
{"smiles": "COc1ccc2c(c1)OC(C)(C)CC2Nc1ncc(C(C)=O)c(C)n1", "note": "(racemic) [1.96]", "values": [{"measurement": "logp (HCOOH)", "setting": "[2]", "value": "solid; m.p.: 183.5° C.; logp (HCOOH): 3.12; 1H-NMR (CDCl3, 400 MHZ, δ in ppm):"}]}
{"smiles": "O=C1CCCc2nc(N[C@@H]3CCc4ccccc43)ncc21", "note": "[2.38]", "values": [{"measurement": "logp (HCOOH)", "setting": "[2]", "value": "oily; logp (HCOOH): 4.84; 1H-NMR (CDCl3, 400 MHZ, δ in ppm): 1.85 (m, 1H, 1H"}]}
{"smiles": "O=C1CCCc2nc(NC3CCSc4ccc(F)cc43)ncc21", "note": "(racemic) [2.114]", "values": [{"measurement": "logp (HCOOH)", "setting": "[2]", "value": "oily; logp (HCOOH): 2.77; 1H-NMR (CDCl3, 400 MHZ, δ in ppm): 2.10 (m, 2H, 2H"}]}
{"smiles": "CC(=O)c1c(C)nc(NC2CCSc3c(F)cccc32)nc1C", "note": "(racemic) [1.65]", "values": [{"measurement": "logp (HCOOH)", "setting": "[2]", "value": "solid; logp (HCOOH): 2.93; 1H-NMR (CDCl3, 400 MHZ, δ in ppm): 2.20 (m, 1H, 1H"}]}
{"smiles": "CC(C)c1ccc2c(c1)C(Nc1ncc3c(n1)CCCC3=O)CC2", "note": "(racemic) [2.107]", "values": [{"measurement": "logp (HCOOH)", "setting": "[2]", "value": "oily; logp (HCOOH): 3.83; 1H-NMR (CDCl3, 400 MHZ, δ in ppm): 1.20 (d, 6H,"}]}
{"smiles": "COc1ccc2c(c1)CCCC2Nc1ncc2c(n1)CCCC2=O", "note": "(racemic) [2.109]", "values": [{"measurement": "logp (HCOOH)", "setting": "[2]", "value": "solid; m.p.: 151.3° C.; logp (HCOOH): 2.83; 1H-NMR (CDCl3, 400 MHZ, δ in ppm):"}]}
{"smiles": "Cc1ccc2c(c1)[C@H](Nc1ncc3c(n1)CCCC3=O)CC2", "note": "[2.41]", "values": [{"measurement": "logp (HCOOH)", "setting": "[2]", "value": "oily; logp (HCOOH): 3.21; 1H-NMR (CDCl3, 400 MHZ, δ in ppm): 1.95 (m, 1H, 1H"}]}
{"smiles": "CCC1Cc2ccc(C)cc2C1Nc1ncc2c(n1)CCCC2=O", "note": "(racemic) [2.106]", "values": [{"measurement": "logp (HCOOH)", "setting": "[2]", "value": "oily; logp (HCOOH): 3.90; 1H-NMR (CDCl3, 400 MHZ, δ in ppm): 0.95 (t, 3H, CH3);"}]}
